Test results taken from PMC9460261, “Need for a Standardized Translational Drug Development Platform: Lessons Learned from the Repurposing of Drugs for COVID-19” (Microorganisms, 2022).
Where a name gives a salt, the structure may show the parent alone. Read-outs that look alike come from different tables or passages of the source.

How the values were obtained:
[1] = test system: SARS-CoV-2; conditions: cited from earlier work; for EC50: read-out: SARS-CoV-2 EC50
[2] = test system: SARS-CoV-2; assay type: in vivo, Syrian hamster; conditions: doses, frequency, duration as in Table 1
[3] = test system: SARS-CoV-2 in Vero cells; assay: microbe, parasite or virus in culture; conditions: Severe acute respiratory syndrome coronavirus 2, Vero
[4] = test system: SARS-CoV-2 in Calu-3 cells; conditions: for IC50: read-out: Calu-3 cells Average IC50, * one replicate only
[5] = test system: SARS-CoV-2 in Calu-3 cells; assay: microbe, parasite or virus in culture; conditions: Severe acute respiratory syndrome coronavirus 2, Calu-3, read-out: Calu-3 cells Average IC50
[6] = test system: SARS-CoV-2 in Vero cells; conditions: for Selectivity Index (Vero cells), With Pgp pump inhibitor / Selectivity Index (Vero cells), Without Pgp pump inhibitor: T: toxicity observed; for IC50: * one replicate only
[7] = Binding to antiviral assay medium by Rapid Equilibrium Dialysis; conditions: 2% serum DMEM media; DNDi in-house data
[8] = Population PK model from satellite PK studies in hamster
[9] = in vitro; conditions: African green monkey, Selectivity Index (Vero cells)
[10] = female, LGV Golden Syrian, hamster, in vivo
[11] = Population PK model in human (digitized literature data)
[12] = read-out: VERO cells Average IC50, With Pgp pump inhibitor, 2 μM CP-100356, * one replicate only
[13] = read-out: VERO cells Average IC50, Without Pgp pump inhibitor, * one replicate only
[14] = read-out: VERO cells Average IC50, Without Pgp pump inhibitor
[15] = read-out: VERO cells Average IC50, With Pgp pump inhibitor, 2 μM CP-100356
[16] = hamster of the study's median weight (80-131 g)
[17] = With Pgp pump inhibitor, T: toxicity observed
[18] = Without Pgp pump inhibitor, T: toxicity observed
[19] = human, modelled from digitized data, ref 68 (ambroxol), 71-73 (cepharanthine), 78 (fluvoxamine), 80 (molnupiravir)

In the case of Cc1c(-c2ccc(-c3ccccc3F)cc2)nc2ccc(F)cc2c1C(=O)O [Brequinar, brequinar], the EC50 ([1]; host cell A549-ACE) is listed as 50 nM, the EC50 ([1]; host cell Caco-2) is listed as greater than 50000 nM and the EC50 ([1]; host cell Huh7.5) is listed as 500 nM. The EC50 ([1]; host cell Vero E6, ref 51) was 120 nM.

For CN(Cc1cc(Br)cc(Br)c1N)C1CCCCC1 [Bromhexine, bromhexine], the EC50 ([1]; host cell Vero E6, ref 47) is listed as 21700 nM.

For CN(C)C(=O)COC(=O)Cc1ccc(OC(=O)c2ccc(NC(=N)N)cc2)cc1 [Camostat mesylate, camostat mesylate], the “Activity in SARS-CoV-2 Hamster Model” value [2] was “No”, the IC50 [3, 12] was greater than 50 µM and the IC50 [3, 13] was greater than 50 µM. For the same compound, the “Activity In Vitro; Potency EC50 or IC50 < 10 µM; Calu-3 Cells” value (“Activity In Vitro … Calu-3 Cells” below) [4] was “Yes (Potency EC50 or IC50 < 10 µM)”, the EC50 ([1]; host cell Calu-3) was 83 nM and the IC50 [5] was 3 µM. The “Activity In Vitro; Potency EC50 or IC50 < 10 µM; Vero Cells” value (from here on “Activity In Vitro … Vero Cells”) [6] was “No (Potency EC50 or IC50 < 10 µM)”.

With COc1cc2c(c(OC)c1OC)-c1ccc(OC)c(=O)cc1[C@@H](NC(C)=O)CC2 [Colchicine, colchicine] the IC50 ([3]; read-out: VERO cells Average IC50, With Pgp pump inhibitor) was 3.7 µM, the IC50 [3, 14] was 8.4 µM and the “Activity In Vitro … Calu-3 Cells” value [4] was “Yes (Potency EC50 or IC50 < 10 µM)”. The “Activity In Vitro … Vero Cells” value [6] was “Yes (Potency EC50 or IC50 < 10 µM)”.

For O=c1nc(NO)ccn1[C@@H]1O[C@H](CO)[C@@H](O)[C@H]1O [EIDD-1931], the “Fraction unbound in assay medium” value [7] was 99.7%, the IC50 [4] was 3.6 µM and the “Selectivity Index (Vero cells), With Pgp pump inhibitor” value [6] was greater than 37. For the same compound, the “Selectivity Index (Vero cells), Without Pgp pump inhibitor” value [6] was greater than 32, the IC50 [6, 15] was 1.3 µM and the IC50 [6, 14] was 1.5 µM.

With C[C@@]1(F)[C@H](O)[C@@H](CO)O[C@H]1n1ccc(=O)[nH]c1=O [GS-331007] the “CL/F, elimination clearance, population estimate (%RSE)” value (“CL/F, elimination clearance … (%RSE)” for short) [8, 16] was 390 (17.4) mL/h and the “VC/F, central volume of distribution, population estimate (%RSE)” value (shortened to “VC/F, central volume … (%RSE)”) [8, 16] was 2750 (17.0) mL.

With OC(c1cc(C(F)(F)F)nc2c(C(F)(F)F)cccc12)C1CCCCN1 (centres unmarked) [Mefloquine, mefloquine] the selectivity ratio ([9]; With Pgp pump inhibitor) was 6.2, the selectivity ratio ([9]; Without Pgp pump inhibitor) was 3.6 and the IC50 [3, 12] was 2.8 µM. For the same compound, the IC50 [3, 13] was 5.7 µM, the “Activity In Vitro … Calu-3 Cells” value [4] was “No (Potency EC50 or IC50 < 10 µM)” and the IC50 [5] was 13.2 µM. For the same compound, the “Activity In Vitro … Vero Cells” value [6] was “Yes (Potency EC50 or IC50 < 10 µM)”.

In the case of CC(C)C(=O)OC[C@H]1O[C@@H](n2ccc(NO)nc2=O)[C@H](O)[C@@H]1O [Molnupiravir, molnupiravir], the selectivity ratio [9, 17] is reported as greater than 19.4, the selectivity ratio [9, 18] is reported as greater than 1.9 and the “Activity in SARS-CoV-2 Hamster Model” value [2] is reported as “Yes”. For the same compound, the “Activity in SARS-CoV-2 Hamster Model” value ([2]; listed as molnupiravir) was “demonstrated in vivo efficacy”, the IC50 [3, 13] was 26 µM and the “CL/F, elimination clearance … (%RSE)” value [10] was 1340 (7.6) mL/h. For the same compound, the “Dose effect on KA (exp)” value [10] was -0.00247 (23.7), the “KA, absorption rate constant, population estimate (%RSE)” value [10] was 1.45 (7.5) h-1 and the “Q/F (Q1/F), inter-compartment clearance, population estimate (%RSE)” value [10] was 15.8 (23.1) mL/h. The “VC/F, central volume … (%RSE)” value [10] was 172 (21.6) mL, the “VP/F, peripheral volume of distribution, population estimate (%RSE)” value [10] was 75.3 (23.0) mL and the “Activity In Vitro … Calu-3 Cells” value [4] was “Yes (Potency EC50 or IC50 < 10 µM)”. For the same compound, the EC50 ([1]; host cell Calu-3) was 100 nM, the “Dose effect on MTT (power)” value ([11]; covariate, human model) was 0.127 (10.8%) and the “CL/F, population estimate (%RSE)” value [11, 19] was 80.9 (3.9%) L/h. For the same compound, the “VC/F, population estimate (%RSE)” value [11, 19] was 128 (5.7%) L, the “MTT, population estimate (%RSE)” value ([11]; human, modelled from digitized data, ref 68 (ambroxol), 78 (fluvoxamine), 80 (molnupiravir)) was 1.0 (3.3%) h and the IC50 [5] was 27.8 µM. The “Activity In Vitro … Vero Cells” value ([6]; in the presence of a P-glycoprotein inhibitor (^Pgp)) was “Yes ^Pgp (Potency EC50 or IC50 < 10 µM)”, the IC50 [6, 15] was 2.6 µM and the IC50 ([6]; read-out: VERO cells Average IC50, With Pgp pump inhibitor, 2 μM CP-100356, listed as molnupiravir) was less than 10 µM.

In the case of CCNCc1cc(Nc2ccnc3cc(Cl)ccc23)ccc1O [N-desethylamodiaquine], the “CL/F, elimination clearance … (%RSE)” value [10] is reported as 804 (9.48%) mL/h, the “Q/F (Q1/F), inter-compartment clearance, population estimate (%RSE)” value [10] is reported as 229 (27.6%) mL/h and the “VC/F, central volume … (%RSE)” value [10] is reported as 1890 (42.2%) mL. For the same compound, the “VP/F, peripheral volume of distribution, population estimate (%RSE)” value [10] was 3050 (77.1%) mL.

For CC(=O)Oc1ccccc1C(=O)Nc1ncc([N+](=O)[O-])s1 [Nitazoxanide, nitazoxanide], the selectivity ratio ([9]; With Pgp pump inhibitor) was greater than 14.7, the selectivity ratio ([9]; Without Pgp pump inhibitor) was greater than 7.9 and the “Activity in SARS-CoV-2 Hamster Model” value [2] was “No”. The IC50 [3, 12] was 3.4 µM, the IC50 [3, 13] was 6.3 µM and the “CL/F, elimination clearance … (%RSE)” value [10] was 626 (11.9) mL/h. For the same compound, the “VC/F, central volume … (%RSE)” value [10] was 188 (38.6) mL and the IC50 [5] was 13.6 µM.

For CC(=O)CCCCn1c(=O)c2c(ncn2C)n(C)c1=O [Pentoxyfilline, pentoxyfilline], the IC50 [3, 12] was greater than 50 µM, the IC50 [3, 13] was greater than 50 µM and the “Activity In Vitro … Calu-3 Cells” value [4] was “No (Potency EC50 or IC50 < 10 µM)”. For the same compound, the IC50 [5] was greater than 50 µM and the “Activity In Vitro … Vero Cells” value [6] was “No (Potency EC50 or IC50 < 10 µM)”.

With CCCN(CCC)S(=O)(=O)c1ccc(C(=O)O)cc1 [Probenecid, probenecid] the IC50 [3, 12] was greater than 50 µM, the IC50 [3, 13] was greater than 50 µM and the “Activity In Vitro … Calu-3 Cells” value [4] was “No (Potency EC50 or IC50 < 10 µM)”. The EC50 ([1]; host cell NHBE) was 1.3 nM, the EC50 ([1]; host cell Vero E6, ref 54) was 750 nM and the IC50 [5] was greater than 50 µM. For the same compound, the “Activity In Vitro … Vero Cells” value [6] was “No (Potency EC50 or IC50 < 10 µM)”.

For CC1(C)C(=O)N(c2ccc(C#N)c(C(F)(F)F)c2F)C(=S)N1c1ccc(CCCc2ncco2)nc1 [Proxalutamide, proxalutamide], the “Activity In Vitro … Calu-3 Cells” value [4] is given as “No (Potency EC50 or IC50 < 10 µM)”, the IC50 [4] is given as 14.5 µM and the EC50 ([1]; host cell LNCaP Cells) is given as 97 nM. The “Activity In Vitro … Vero Cells” value [6] was “No (Potency EC50 or IC50 < 10 µM)”, the “Selectivity Index (Vero cells), With Pgp pump inhibitor” value [6] was less than 2.3 and the “Selectivity Index (Vero cells), Without Pgp pump inhibitor” value [6] was less than 1.6. For the same compound, the IC50 [6, 15] was 21.5 µM and the IC50 [6, 14] was 30.3 µM.

In the case of CC(C)c1nc(CN(C)C(=O)N[C@H](C(=O)N[C@@H](Cc2ccccc2)C[C@H](O)[C@H](Cc2ccccc2)NC(=O)OCc2cncs2)C(C)C)cs1 [Ritonavir, ritonavir], the EC50 ([1]; host cell Vero E6, ref 31) is given as greater than 100000 nM, the EC50 ([1]; host cell Vero E6, ref 32) is given as greater than 50000 nM and the EC50 ([1]; host cell VeroE6/TMPRSS2) is given as 8600 nM.

O=C(Nc1ncc([N+](=O)[O-])s1)c1ccccc1O [Tizoxanide, tizoxanide] gave a selectivity ratio [9, 17] greater than 21.7, a selectivity ratio [9, 18] greater than 7 and an IC50 [3, 12] of 2.3 µM. For the same compound, the IC50 [3, 13] was 7.2 µM and the IC50 [5] was 14.3 µM.

With NCCC(Oc1ccc(C(F)(F)F)cc1)c1ccccc1 (centres unmarked) [norfluoxetine] the “FFP, fraction undergoing first-pass metabolism, population estimate (%RSE)” value ([8]; hamster 97 g) was 0.323 (11), the “CL/F, elimination clearance … (%RSE)” value [8, 16] was 93.3 (6.3) mL/h and the “VC/F, central volume … (%RSE)” value [8, 16] was 2740 (5.7) mL.

For bemnifosbuvir, the “Activity in SARS-CoV-2 Hamster Model” value [2] was “No ^d”, the “Activity in SARS-CoV-2 Hamster Model” value ([2]; listed as bemnifosbuvir (AT-527)) was “no activity” and the “Activity In Vitro … Calu-3 Cells” value [4] was “No (Potency EC50 or IC50 < 10 µM)”. The IC50 [4] was greater than 50 µM, the EC90 ([1]; host cell HAE, AT-511, free base of AT-527 used) was 470 nM and the “Activity In Vitro … Vero Cells” value [6] was “No (Potency EC50 or IC50 < 10 µM)”. It also gave an IC50 [6, 15] greater than 25 µM and an IC50 [6, 14] greater than 25 µM.

With ivermectin the “Activity in SARS-CoV-2 Hamster Model” value [2] was “No”, the “Activity In Vitro … Calu-3 Cells” value [4] was “Yes (Potency EC50 or IC50 < 10 µM)” and the IC50 [4] was 8.9 µM. The IC50 ([1]; Vero-hSLAM cells, read-out: IC50, medium) was 2800 nM, the EC50 ([1]; host cell Vero E6, ref 22) was 1700 nM and the EC50 ([1]; host cell Vero E6, ref 38) was 2300 nM. The EC50 ([1]; host cell not given) was 2000 nM, the “Effect of SC administration on F” value ([8]; compared to PO administration) was 0.656 (15.7) and the “Effect of SC administration on KA” value ([8]; compared to PO administration) was 2.05 (50.0). For the same compound, the “Effect of SC administration on MTT” value ([8]; compared to PO administration) was -0.85 (5.61), the “MTT, mean transit time, population estimate (%RSE)” value ([8]; hamster 120 g) was 0.478 (7.42) h and the “CL/F, elimination clearance … (%RSE)” value [8, 16] was 13.3 (0.160) mL/h. The “KA, absorption rate constant, population estimate (%RSE)” value [8, 16] was 0.531 (8.35) h-1, the “Activity In Vitro … Vero Cells” value [6] was “Yes (Potency EC50 or IC50 < 10 µM)” and the IC50 [6, 15] was 1.1 µM. The IC50 [6, 14] was 4.3 µM.
